# Results from patent US20100298280A1, “Compounds for the Modulation of Huntingtin Aggregation, Methods and Means for Identifying Such Compounds” (priority 2007, published 2010).
# How the values were obtained:
# [1] = target: mutant huntingtin aggregates (HDex1Q68 fused to ECFP/EYFP) (Homo sapiens, UniProt P42858, INS38QQQQQQQQQQQQQQQQQQQQQQQQQQQQQQQQQQQQQQQQQQQQQQQ); test: Cellular FRET aggregation assay in stable Tet-off CHO-AA8/Q68-Q68 cells; assay type: cell-based; settings: for apparent inhibitory effects due to toxic effects (concentration): FRET decrease attributed to toxicity
# Method: To determine the potential of possibly inhibiting substances the inventors performed dose response assays at concentrations ranging from 1, to 100 μM.
# Screening was performed in 96-well plates (greiner bio-one) containing 1×10^4 cells/well of the stably inducible tet off cell lines htt-mut (six-fold) and CHO-AA8 line (three fold) for background control. Simultaneously, each compound was checked for its potential autofluorescence.
# Two stable inducible CHO Tet off cell lines were constructed expressing simultaneously wildtype (CHO-AA8/Q17-Q17) or mutant (CHO-AA8/Q68-Q68) huntingtin fragments fused to ECFP or EYFP (FIG. 1B) after withdrawal of doxicycline (dox). Basal and induced expression levels of huntingtin fusion proteins were examined by Western blot analysis at different time intervals (4, 24, 48, and 72 hours). […] For the screening approach stable inducible huntingtin expressing cell lines were seeded in 96-well plates and the fluorescence intensities were measured with a fluorescence plate reader.
# The test compounds were mixed in a fresh doxicycline-free medium with 2% DMSO and added to the Tet off cell lines two to three hours after seeding and attachment of the cells.
# (§1) The FRET-measurement was performed 48 h later.
# Subsequently, a second screening round was performed at concentration range 1, 3, and 10 μM, respectively.
# [2] = tested on: CHO-AA8/Q68-Q68 cells; test: Propidium iodide exclusion assay (viability, cell number) following the FRET assay; settings: after 48 h; for Viability ↓ (concentration) / Viability (effect in words): propidium iodide exclusion
# Method: CHO-AA8/Q68-Q68, CHO-AA8/Q17-Q17 and CHO-AA8 cells were seeded in 96 well plates. After attachment of the cells, the medium was exchanged for Ham's F 12 medium containing 10% doxicycline free FBS and 2% DMSO supplemented with compounds. After 48 h the fluorescence intensities of cells were measured using a fluorescence plate reader (Fluoroscan Ascent, Thermo Scietific) and filtersets for CFP (ex 444 nm, em 485 nm), YFP(ex 485 nm, em 538 nm) and FRET (ex 444 nm, em 538 nm). After correction of background fluorescence (subtraction of CHO-AA8 cell fluorescence intensities) the FRET signal was determined using the method: FA=(FRET-a*YFP)/CFP with a=0.11 (Zal u. Gascoigne 2004, Zal et al. 2002). In following, the viability of cells was measured using a propidium iodide exclusion assay (Sattler et al. 1997). PI was added to the cells at final concentration of 0.15 mg/ml. After 15 minutes the PI fluorescence intensity was measured (ex 530 nm, em 620 nm). The cells were then lysed with 0.5% Triton X-100 (TX100) and the PI fluorescence intensity was measured again. Viability of cells was calculated as viability=1−(PIbefore TX100/PIafter TX100).
# as §1
# Sequence of mutant huntingtin aggregates (HDex1Q68 fused to ECFP/EYFP) (P42858 1-88, stated change not applied): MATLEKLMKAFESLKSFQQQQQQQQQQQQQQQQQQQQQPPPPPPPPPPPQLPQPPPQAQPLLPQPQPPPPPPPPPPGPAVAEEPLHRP
Molecule,Cell number ↓ (concentration) [2],"FRET-signal (effect in words) ([1]; 48 h, 2% DMSO)",Cell number (effect in words) [2],Viability (effect in words) [2],further results
C=CCNC1=C2C[C@@H](C)C[C@H](OC)[C@H](O)[C@@H](C)/C=C(\C)[C@H](OC(N)=O)[C@@H](OC)/C=C\C=C(/C)C(=O)NC(=CC1=O)C2=O [17-AAG],↓ ≧0.3 μM,,,,"FRET-signal ↓ (concentration from which aggregation is reduced) ([1]; 48 h, 2% DMSO): ↓ ≧0.3 μM; apparent inhibitory effects due to toxic effects (concentration) [1]: > 0.7 µM; Viability ↓ (concentration) [2]: ↓ ≧0.3 μM"
CN(CC(=O)O)C(=N)N [Creatine],,no effect,no effect,no effect,"FRET-signal (effect in words) ([1]; 48 h, 2% DMSO, listed as creatin): no effects"
NCCSSCCN [Cystamine],,no effect,no effect,no effect,"FRET-signal (effect in words) ([1]; 48 h, 2% DMSO, listed as cystamine dihydrochloride): no effects"
O=C(O)Cc1ccccc1Nc1c(Cl)cccc1Cl [Diclofenac],↓ ≧250 nM,no effect,,no effect,"FRET-signal (effect in words) ([1]; 48 h, 2% DMSO, listed as diclofenac): no effects"
COc1ccc2c(c1)c(CC(=O)O)c(C)n2C(=O)c1ccc(Cl)cc1 [Indomethacin],↓ ≧1.25 μM,,,,"FRET-signal ↓ (concentration from which aggregation is reduced) ([1]; 48 h, 2% DMSO): ↓ ≧1.25 μM; Viability ↓ (concentration) [2]: ↓ 10 μM"
CC(Cc1ccc(O)c(O)c1)C(C)Cc1ccc(O)c(O)c1 (stereo not shown) [NDGA],↓ 500 nM,no effect,,no effect,
Nc1nc2ccc(OC(F)(F)F)cc2s1 [Riluzole],,,no effect,no effect,
O=C(CCCCCN1C(=O)c2cccc3cccc(c23)C1=O)NO [Scriptaid],↓ ≧25 μM,,decreased,,"FRET-signal ↑ (concentration from which aggregation is increased) ([1]; 48 h, 2% DMSO): ↑ ≧25 μM; Viability ↓ (concentration) [2]: ↓ ≧25 μM"
OC[C@H]1O[C@H](O[C@H]2O[C@H](CO)[C@@H](O)[C@H](O)[C@H]2O)[C@H](O)[C@@H](O)[C@@H]1O [Trehalose],,no effect,no effect,no effect,"FRET-signal (effect in words) ([1]; 48 h, 2% DMSO, listed as threhalose): no effects"
C[C@@H](N)[C@H]1CC[C@H](C(=O)Nc2ccncc2)CC1 [Y-27632],,no effect,no effect,no effect,apparent inhibitory effects due to toxic effects (concentration) [1]: > 12.5 µM
O=C(O)c1cc(/N=N/c2ccc(-c3ccc(/N=N/c4ccc(O)c(C(=O)O)c4)cc3)cc2)ccc1O [chrysamine G],,no effect,no effect,no effect,"FRET-signal (effect in words) ([1]; 48 h, 2% DMSO, listed as Chrysamine G): no effects"
COC1=C(OC)C(=O)C(C/C=C(\C)CC/C=C(\C)CC/C=C(\C)CC/C=C(\C)CC/C=C(\C)CC/C=C(\C)CC/C=C(\C)CC/C=C(\C)CC/C=C(\C)CCC=C(C)C)=C(C)C1=O [coenzyme Q10],,no effect,no effect,no effect,
COC1=C2C[C@@H](C)C[C@H](OC)[C@H](O)[C@@H](C)/C=C(\C)[C@H](OC(N)=O)[C@@H](OC)/C=C\C=C(/C)C(=O)NC(=CC1=O)C2=O [geldanamycin],,,no effect,no effect,
O=C([O-])c1ccccc1O.[Na+] [sodiumsalicylat],,no effect,,no effect,"FRET-signal (effect in words) ([1]; 48 h, 2% DMSO, listed as sodiumsalyicylate): no effects"
half-Chrysamine G,,no effect,no effect,no effect,"FRET-signal ↓ (concentration from which aggregation is reduced) ([1]; 48 h, 2% DMSO): > 2.5 µM"
